From PubChem BioAssay AID1794826

Molecular target: Sodium/myo-inositol cotransporter 2 (Homo sapiens) (UniProt Q8WWX8)
Experiment: SLC5A11 myo-inositol cotransport substrate activity, dose response, cell-based, membrane potential dye, HEK-293, SLC5A11 overexpression (AID 1794826)
Conditions: HEK-293 SLC5A11 OE, FLIPR membrane potential dye

Sequence of Sodium/myo-inositol cotransporter 2 (Homo sapiens) (Q8WWX8 whole entry, looked up): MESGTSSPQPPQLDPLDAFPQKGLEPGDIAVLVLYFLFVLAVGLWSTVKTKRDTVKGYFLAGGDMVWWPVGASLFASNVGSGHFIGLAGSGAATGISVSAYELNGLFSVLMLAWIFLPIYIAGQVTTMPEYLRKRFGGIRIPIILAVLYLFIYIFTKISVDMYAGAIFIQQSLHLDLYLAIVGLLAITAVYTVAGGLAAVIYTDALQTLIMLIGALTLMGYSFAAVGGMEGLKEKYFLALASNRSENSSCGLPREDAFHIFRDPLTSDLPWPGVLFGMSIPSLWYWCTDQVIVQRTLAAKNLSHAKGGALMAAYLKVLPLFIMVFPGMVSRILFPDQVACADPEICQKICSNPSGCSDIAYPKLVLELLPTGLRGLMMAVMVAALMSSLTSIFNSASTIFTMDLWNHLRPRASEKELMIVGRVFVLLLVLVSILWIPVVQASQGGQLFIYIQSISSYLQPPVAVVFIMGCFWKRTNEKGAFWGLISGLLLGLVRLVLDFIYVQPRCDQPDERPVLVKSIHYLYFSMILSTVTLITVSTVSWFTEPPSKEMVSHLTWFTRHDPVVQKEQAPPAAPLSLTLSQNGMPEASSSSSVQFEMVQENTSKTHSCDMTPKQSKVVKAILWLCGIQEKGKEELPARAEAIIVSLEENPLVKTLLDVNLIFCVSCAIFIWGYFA

EC50: 104 µM
Compound: OC1C(O)C(O)C(O)C(O)C1O (stereo unspecified)
